For one test, the system named is LS411N cell line. The test can be described thus: In vitro tumor cell proliferation assay (3D spheroid, 3D CTG), LS411N. The test is classed as cell-based. Particulars: Homo sapiens, LS-411N, 192 h. How it is done: (§1) Cell suspensions containing 1.5×10^3 total cells in 100 μL culture media were deposited in each well of an ultra-low attachment 96 well plate. Plates were incubated at 37° C. with […] and 5% CO2 for 72 h to allow for spheroid formation. […] ZN-c3 and/or Encorafenib compounds in DMSO were deposited into the plates using an automated drug dispenser at the indicated concentrations. Total DMSO content was normalized to 0.1% of the total volume in all assay conditions. Plates were sealed with breathable film to reduce evaporation and incubated at 37° C. with […] and 5% CO2 for 192 h. After 192 h, plates were removed from the incubator and allowed to come to room temperature. 100 μL room temperature 3D CTG reagent (Promega, Cat #G9683) was added to each well. Plates were agitated at 520 revolutions per minute (rpm) for 5 mins, allowed to stabilize protected from light for 30 mins, then luminescence was measured on an M5e plate reader (SpectraMax). Percent viability was calculated as percentage of cell viability relative to DMSO-only vehicle control.

The target of a further test is WEE1 (Homo sapiens, UniProt P30291). Particulars: as provided in WO 2019/173082; cited from earlier work.
The subject of test [1] is CTG-1009 PDX model (BRAFmt CRC). The test is classed as in vivo, female athymic nude Foxn1nu mice. Particulars: ZN-c3 60 mg/kg QD p.o., encorafenib 20 mg/kg QD p.o., cetuximab 15 mg/kg BIW i.p., 28-day study. The procedure:
(§2) PDX Models: Tumor fragments (CRC769, CRC563, CTG-1009) were brought out of cryopreservation and implanted into female athymic nude Foxn1nu mice. Fragments were allowed to grow then excised once an appropriate volume was reached. A tumor slurry was made of 50% freshly harvested tumors minced to small tumor fragments in PBS and 50% Matrigel. The tumor slurry was injected subcutaneously into 6-8 week old female athymic nude Foxn1nu mice on the flank.
(§3) Grouping and treatments started when the mean tumor volume reached about 220 mm^3 (with individual tumors in the range of 200-240 mm^3). Vehicle animals were treated daily with 10 mL/kg HP-β-CD p.o. (oral gavage). Encorafenib was prepared weekly in 0.5% carboxymethyl cellulose: 0.5% Tween 80:99% deionized water and dosed daily (QD) at the indicated doses orally (p.o.) (see Tables 4 and 5 for dosage amounts). ZN-c3 was prepared daily in 20% HP-B-CD and dosed daily at the indicated doses p.o. (see Tables 4 and 5 for dosage amounts). […] Body weight and tumor volume of all animals was measured twice weekly throughout the studies that were 21 or 22 days or 3 weeks in duration (for CDX models HT-29 and LS411N) or that were 28 days or 4 weeks in duration (for PDX models CRC769, CRC563 and CTG-1009). The measurement of tumor size was performed with a caliper and the tumor volume (mm3) was estimated using the formula: TV=a×b2/2 throughout the study, where “a” and “b” is long and short diameters of a tumor, respectively. Animals were euthanized when their individual tumor burden exceeded 2000 mm^3 or is in a continuing deteriorating condition or close to a comatose state.

Test [2] has as its system CRC563 PDX model (BRAFmt CRC). The test is classed as in vivo, female athymic nude Foxn1nu mice. Particulars: ZN-c3 60 mg/kg QD p.o., encorafenib 20 mg/kg QD p.o., cetuximab 20 mg/kg BIW i.p., 28-day study. How it is done: as §2, §3
Test [3] has as its system CRC769 PDX model (BRAFmt CRC). The test is classed as in vivo, female athymic nude Foxn1nu mice. Particulars: ZN-c3 60 mg/kg QD p.o., encorafenib 20 mg/kg QD p.o., cetuximab 20 mg/kg BIW i.p., 28-day study. The procedure:
as §2, §3

A further test deals with HT-29 cell line. The test can be described thus: In vitro tumor cell proliferation assay (3D spheroid, 3D CTG), HT-29. The class given is cell-based. Particulars: Homo sapiens. How it is done: as §1
In test [4] the test system is HT-29 CDX model (BRAFmt CRC). The test is classed as in vivo, BALB/c nude mice. Particulars: ZN-c3 60 mg/kg QD p.o., encorafenib 15 mg/kg QD p.o., cetuximab 15 mg/kg BIW i.p.; for TGI: 21- or 22-day study. How it is done: (§4) CDX Models: 6-8 week old BALB/c nude mice were inoculated subcutaneously on the right flank with the single cell suspension of 95% viable tumor cells (5×10^6) in 100 μL RPMI 1640 without serum (COLO205), 95% viable tumor cells (2×10^6) in 100 μL McCoy's 5a Medium Modified without serum (HT-29), or 95% viable tumor cells (2×106) in 100 μL RPMI 1640 and Matrigel mixture (1:1 ratio) without serum (LS411N).
as §3

Test [5] concerns LS411N CDX model (BRAFmt CRC). The test is classed as in vivo, BALB/c nude mice. Particulars: ZN-c3 60 mg/kg QD p.o., encorafenib 20 mg/kg QD p.o., cetuximab 15 mg/kg BIW i.p.; for TGI: 21- or 22-day study. How it is done: as §4, §3
[6] abbreviates: LS411N spheroids, 250 nM ZN-c3, 25 nM encorafenib, relative to 0.1% DMSO.
The mark [7] stands for this setting: HT-29 spheroids, 192 h, 250 nM ZN-c3, 1.6 nM encorafenib, relative to 0.1% DMSO.

The structures appear in SMILES notation.

In general, inhibition refers to the drop in the measured response relative to a control, in per cent. Lower therefore signals a response near the control.

Chain of WEE1 (P30291 whole entry, species assumed): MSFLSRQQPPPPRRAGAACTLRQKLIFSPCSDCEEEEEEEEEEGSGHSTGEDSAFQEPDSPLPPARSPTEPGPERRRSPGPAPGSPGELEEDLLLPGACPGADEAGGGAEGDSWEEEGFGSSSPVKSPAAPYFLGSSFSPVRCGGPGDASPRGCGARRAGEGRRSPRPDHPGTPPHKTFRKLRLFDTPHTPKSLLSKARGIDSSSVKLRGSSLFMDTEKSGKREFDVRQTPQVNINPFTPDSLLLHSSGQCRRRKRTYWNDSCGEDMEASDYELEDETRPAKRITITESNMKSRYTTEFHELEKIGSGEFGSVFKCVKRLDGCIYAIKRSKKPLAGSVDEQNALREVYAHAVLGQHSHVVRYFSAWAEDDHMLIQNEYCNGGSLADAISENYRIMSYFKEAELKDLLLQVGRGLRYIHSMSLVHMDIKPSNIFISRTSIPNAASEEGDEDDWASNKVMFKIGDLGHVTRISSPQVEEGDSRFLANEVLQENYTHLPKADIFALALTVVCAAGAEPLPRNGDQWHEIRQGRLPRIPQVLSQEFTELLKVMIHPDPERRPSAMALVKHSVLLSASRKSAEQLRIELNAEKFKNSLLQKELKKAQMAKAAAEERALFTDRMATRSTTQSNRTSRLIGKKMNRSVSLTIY

The compound `C=CCn1c(=O)c2cnc(Nc3ccc(N4CCN(C)CC4)cc3)nc2n1-c1ccc2c(n1)[C@@](O)(CC)CC2` [ZN-c3, (R)-2-allyl-1-(7-ethyl-7-hydroxy-6,7-dihydro-5H-cyclopenta[b]pyridin-2-yl)-6-((4-(4-methylpiperazin-1-yl)phenyl)amino)-1,2-dihydro-3H-pyrazolo[3,4-d]pyrimidin-3-one] yielded an inhibition at 0.35 µM in the test on LS411N cell line of 21.6%. For the same compound, the inhibition at 0.25 µM with LS411N cell line (setting [6]) stood at 27.5%; in the test with HT-29 cell line (setting [7]) it was 39%. The “activity against WEE1” value on WEE1 was “active against WEE1”. For the same compound, the TGI is listed as 51.2 in test [1]; 43.4 in test [2]; 19.0 in test [3]; 15.0 in test [4]; 69.0 in test [5]. In the test on HT-29 cell line (HT-29, 192 h), this compound gave an inhibition at 0.3 µM of 34.5%. The “Tumor Vol. Change from D 14-D 21 (%)” value in test [4] was 36.3%; in test [5] it was 35.8%.
In the case of `COC(=O)N[C@@H](C)CNc1nccc(-c2cn(C(C)C)nc2-c2cc(Cl)cc(NS(C)(=O)=O)c2F)n1` [Encorafenib, encorafenib, reference compound], testing at 0.025 µM in the test on LS411N cell line (setting [6]) gave an inhibition of 28.3%. Moreover, the TGI in test [1] came to 80.0; in test [3], 69.0; in test [4], 42.6; in test [5], 64.6. This compound returned an inhibition at 0.01 µM in the test on HT-29 cell line (HT-29, 192 h) of 75.8%. The compound also showed an inhibition at 0.0016 µM with HT-29 cell line (setting [7]) of 39.5%. Further, the “Tumor Vol. Change from D 14-D 21 (%)” value was found to be 36.9% in test [4] and 36.6% in test [5].

The values above are taken from patent US20250205240A1, “COMBINATIONS” (Recurium IP Holdings, LLC, priority 2022, published 2025).
